Measurements as given in patent publication US11229664B2, “Treatment of myelosuppression” (priority 2012, dated 2022).
Several values for one entry are separate records, joined by “and”; a condition that tells them apart may be missing. Equal values may be shown once.

Legend:
[1] = tested on: Human ovarian cancer cell line A2780; assay: A2780 human ovarian cancer xenograft model: tumor weight; format: in vivo, athymic female mice; set-up: key to Mouse status printed in place of tumor weight: FD = Found Dead; TS = Terminal Sacrifice; settings: for Tumor weight, individual mice: listed as PGX ODSH; for Mouse status printed in place of tumor weight: Groups 2 and 3
Method: (§1) ODSH (50 mg/mL stock concentration) was made by Pyramid Laboratories, Inc. and stored at room temperature until use. As described further below, ODSH was administered either intravenously (IV), at a dose of 48 mg/kg and volume of 10 mL/kg, or subcutaneously (SC) at a dose of 24 mg/kg and volume of 5 ml/kg. Carboplatin obtained from a clinical supplier was stored at 4° C. until use. Carboplatin was administered by intraperitoneal injection (IP) at a dose of 80 mg/kg and volume of 10 mL/kg. Saline solution (0.9% NaCl) was used as a vehicle control for ODSH and administered by the same routes and in the same volumes as ODSH.
(§2) Human ovarian cancer cell line A2780 was used in the murine xenograft experiments as follows. Approximately 5×10^6 A2780 cells were used per mouse, injected subcutaneously into the right flank in 0.1 mL of 50% Matrigel/50% media. The study was initiated when tumors reached a size of 90-130 mg. 40 mice were used, 10 per treatment regimen. The mice were normal athymic female mice, aged 6-7 weeks, housed in microisolator cages and maintained under pathogen-free conditions. Tumor and body weights were measured three times per week.
(§3) Four treatment groups were studied.

[2] = A2780 xenograft study: body weight; format: in vivo, athymic female mice; settings: Group 2: 48 mg/kg IV QD + 24 mg/kg SC BID, individual mice, listed as PGX ODSH
Method: as §1, §2, §3

substantially 2-O, 3-O desulfated heparin [ODSH]
Tumor weight, Mean ([1]; Day 1): 107.0 mg
Tumor weight, Median ([1]; Day 1): 105.5 mg
Tumor weight, individual mice ([1]; Day 1, Mouse 1-10): 104 mg (2×) and 107 mg and 109 mg and 112 mg and 120 mg and 126 mg and 90 mg and 96 mg and 101 mg
Tumor weight, Mean ([1]; Day 4): 146.8 mg
Tumor weight, Median ([1]; Day 4): 134.2 mg
Tumor weight, individual mice ([1]; Day 4, Mouse 1-10): 159 mg and 111 mg and 195 mg and 131 mg and 173 mg and 124 mg and 200 mg and 121 mg and 117 mg and 138 mg
Tumor weight, Mean ([1]; Day 6): 240.3 mg
Tumor weight, Median ([1]; Day 6): 238.2 mg
Tumor weight, individual mice ([1]; Day 6, Mouse 1-10): 309 mg and 215 mg and 347 mg and 264 mg and 235 mg and 139 mg and 282 mg and 241 mg and 171 mg and 201 mg
Tumor weight, Mean ([1]; Day 8): 382.2 mg
Tumor weight, Median ([1]; Day 8): 392.0 mg
Tumor weight, individual mice ([1]; Day 8, Mouse 1-10): 449 mg and 321 mg and 639 mg and 413 mg and 411 mg and 183 mg and 422 mg and 373 mg and 315 mg and 296 mg
Tumor weight, Mean ([1]; Day 11): 609.6 mg
Tumor weight, Median ([1]; Day 11): 585.4 mg
Tumor weight, individual mice ([1]; Day 11, Mouse 1-10): 816 mg and 366 mg and 910 mg and 653 mg and 536 mg and 349 mg and 811 mg and 635 mg and 491 mg and 529 mg
Tumor weight, Mean ([1]; Day 14): 984.4 mg
Tumor weight, Median ([1]; Day 14): 949.7 mg
Tumor weight, individual mice ([1]; Day 14, Mouse 1-10): 1,303 mg and 670 mg and 1,499 mg and 1,032 mg and 868 mg and 559 mg and 1,253 mg and 1,084 mg and 815 mg and 762 mg
Tumor weight, Mean ([1]; Day 18): 1,501.7 mg
Tumor weight, Median ([1]; Day 18): 1,591.5 mg
Tumor weight, individual mice ([1]; Day 18, Mouse 1-10): 1,796 mg and 1,150 mg and 1,836 mg and 1,568 mg and 1,714 mg and 891 mg and 1,869 mg and 1,615 mg and 1,157 mg and 1,422 mg
Tumor weight, Mean ([1]; Day 21): 2,072.6 mg
Tumor weight, Median ([1]; Day 21): 1952.5 mg
Tumor weight, individual mice ([1]; Day 21, Mouse 1-10): 2,692 mg and 1,467 mg and 2,639 mg and 1,852 mg and 1,880 mg and 1,289 mg and 2,560 mg and 2,642 mg and 1,681 mg and 2,025 mg
Tumor weight, Mean ([1]; Day 25): 2,343.5 mg
Tumor weight, Median ([1]; Day 25): 2,422.8 mg
Tumor weight, individual mice ([1]; Day 25, Mouse 1-10): 2,414 mg and 2,464 mg and 2,599 mg and 1,817 mg and 2,423 mg
Mouse status printed in place of tumor weight ([1]; Day 25, individual mice): TS
Tumor weight, Mean ([1]; Day 28): 3,349.0 mg
Tumor weight, Median ([1]; Day 28): 3,251.6 mg
Tumor weight, individual mice ([1]; Day 28, Mouse 1-10): 3,909 mg and 3,784 mg and 3,252 mg and 2,671 mg and 3,129 mg
Mouse status printed in place of tumor weight ([1]; Day 28, individual mice): TS
Individual weights, Day 1 Weight ([2]; Day 1 (baseline)): 22.1 g and 20.3 g and 21.0 g and 21.8 g and 21.6 g and 21.4 g and 19.8 g (2×) and 20.9 g and 19.7 g
Day 4 Weight change ([2]; Day 4): 3.6% and 1.5% and −0.5% and −1.8% and 6.5% and 1.9% and −1.0% and 5.6% and 10.0% and −2.5%
Individual weights, Day 4 Weight ([2]; Day 4): 22.9 g and 20.6 g and 20.9 g (2×) and 21.4 g and 23.0 g (2×) and 21.8 g and 19.6 g and 19.2 g
Day 6 Weight change ([2]; Day 6): 5.0% and 1.5% and 1.0% and −1.4% and 13.4% and 2.8% and 2.0% and 7.6% and 8.1% and −2.5%
Individual weights, Day 6 Weight ([2]; Day 6): 23.2 g and 20.6 g and 21.2 g and 21.5 g and 24.5 g and 22.0 g and 20.2 g and 21.3 g and 22.6 g and 19.2 g
Day 8 Weight change ([2]; Day 8): 5.0% and 5.4% and 2.9% and 2.3% and 16.2% and 5.6% (2×) and 12.1% and 6.7% and 2.0%
Individual weights, Day 8 Weight ([2]; Day 8): 23.2 g and 21.4 g and 21.6 g and 22.3 g (2×) and 25.1 g and 22.6 g and 20.9 g and 22.2 g and 20.1 g
Day 11 Weight change ([2]; Day 11): 4.5% and 10.3% and 4.8% (2×) and 4.1% and 17.6% and 8.4% and 5.6% and 14.6% and 6.1%
Individual weights, Day 11 Weight ([2]; Day 11): 23.1 g and 22.4 g and 22.0 g and 22.7 g (2×) and 25.4 g and 23.2 g and 20.9 g (2×) and 21.9 g
Day 14 Weight change ([2]; Day 14): 10.0% and 14.3% and 8.6% and 8.7% and 23.6% and 11.2% (2×) and 11.1% and 17.2% and 9.6%
Individual weights, Day 14 Weight ([2]; Day 14): 24.3 g and 23.2 g (2×) and 22.8 g and 23.7 g and 26.7 g and 23.8 g and 22.0 g and 22.9 g and 21.9 g
Day 18 Weight change ([2]; Day 18): 5.9% and 14.3% and 11.0% and 6.4% and 22.2% and 11.2% and 1.0% and 10.1% and 10.0% and 7.6%
Individual weights, Day 18 Weight ([2]; Day 18): 23.4 g and 23.2 g (2×) and 23.3 g and 26.4 g and 23.8 g and 20.0 g and 21.8 g and 23.0 g and 21.2 g
Day 21 Weight change ([2]; Day 21): 7.2% and 18.2% and 10.5% and 10.1% and 22.2% and 12.6% and 3.0% and 10.6% and 9.6% and 11.2%
